Results reported in patent US20160058829A1, “ANTI-FIBROTIC PEPTIDES AND THEIR USE IN METHODS FOR TREATING DISEASES AND DISORDERS CHARACTERIZED BY FIBROSIS” (Thrasos Innovation, Inc., priority 2011, published 2016).
Positions of bridges follow the written chain, without caps; N, C: chain ends.

Tests used:
[1] = tested on: BALB/c mice with bleomycin-induced lung fibrosis; assay: Bleomycin (plus cyclophosphamide)-induced pulmonary fibrosis in BALB/c mice
Experimental: The endpoints in this model are survival and histomorphometric evaluation of the extent of fibrosis in lung tissue.
The test compound, in lyophilized form, is dissolved in 50 mM acetate buffer, pH 4.5 at an initial concentration of 20 mg/mL. The stock solution is then divided into several one mL aliquots, snap frozen and stored at −70° C. until used. On the Day of use, each aliquot is thawed and further diluted to a required working concentration in PBS, pH 7.5. The working concentration is determined from the intended dose (mg/kg body weight) and the oral administration volume.
In addition, the mice are administered a single intraperitoneal injection of cyclophosphamide (150 mg/kg of body weight). The animals challenged with Bleomycin plus Cyclophosphamide are separated into two groups, each group having a minimum of 6 animals. The vehicle treated group (Group 1) receives daily oral doses of PBS, pH 7.5. […] These treatments are continued for up to 16 days after Bleomycin administration. A third control group of mice receive intra-tracheal PBS rather than Bleomycine and Cyclophosphamide.
After completion of the in-life study, the animals are euthanized (methoxyflurane anesthesia), and the lungs are perfused with ice cold Hank's balanced salt solution to remove blood-born cells, and then inflated under a constant pressure of 30 cm H2O with 10% normal buffered formalin (NBF). Lungs are ligated at the trachea, removed en bloc, and immersed in NBF for 24 hr. After which, tissue samples are changed to 70% alcohol before paraffin embedding, followed by sectioning and staining with hematoxylin, eosin and Masson's Trichrome. Sections are analyzed microscopically to evaluate pulmonary fibrosis by determining the degree of collagen accumulation (Masson's Trichrome).
Pulmonary fibrosis was evaluated histomorphometricly by determining the percentage of field with collagen accumulation lung sections stained with Masson's Trichrome.

[2] = tested on: Alk-3 deleted mice and littermate control mice, IRI; assay: IRI in Alk-3 deleted (γGT-Cre; Alk3 flox/flox) and control mice; assay type: in vivo; details: for renal injury (tubular necrosis), IRI: THR-123 orally 5 mg/kg/day
Experimental: (§1) FIG. 76A-FIG. 76T THR-123 acts on tubule Alk3 as a receptor in kidney disease models. FIG. 76A-FIG. 76D, The effect of THR-123 on the IRI model kidney injury in Alk3^flox/flox and […]GTCre; Alk3^flox/flox mice. After ischemia reperfusion injury the mice were given THR-123 orally (5 mg/kg/day) till the day of sacrifice. FIG. 76A-FIG. 76C, the representative H&E staining picture of indicated group of mice are shown. FIG. 76D. Percentage renal tubular necrosis in IRI. Ten fields in each group were analyzed. Data are shown as mean±s.e.m. in the graph. FIG. 76E-FIG. 76T, The effect of THR-123 on the NTN model kidney injury in Alk3^flox/flox and gGTCre; Alk3^flox/flox mice. Six weeks after NTN was introduced in the indicated groups of mice, mice were treated with PBS or THR-123 orally. FIG. 76E-FIG. 76H, the representative MTS staining picture of indicated group of mice are shown. FIG. 76I, Morphometric analyses from 9 weeks of NTN models in indicated groups. FIG. 76J-FIG. 76N, Macrophage accumulation analysis in the kidney of NTN model in Alk3^flox/flox and gGTCre; Alk3^flox/flox mice. FIG. 76J-FIG. 76M, Mac-1 immunofluorescence study of indicated groups of mice. FIG. 76N, The number of macrophages per field of view (×400 magnification) was assessed by counting positively labeled cells in 5 random fields of view per slide, with 5 slides per experimental group. Data are shown as mean±s.e.m. in the graph. FIG. 76O-FIG. 76S, EMT analysis, FIG. 76O-FIG. 76R, E-cadherin/FSP1 immunolabeling of kidney in NTN-induced Alk3^flox/flox and GTCre; Alk3^flox/flox mice treated with either PBS or THR-123. FIG. 76S. Percent of E-cadherin/FSP1 double positive tubule. 500 tubules per slide, 5 slides per experimental group were analyzed. Data are expressed as mean±s.e.m. in the graph. FIG. 76T, Blood urea nitrogen measurement in 6 and 9 weeks of NTN in indicated groups of mice (all n=4).
Ischemia reperfusion injury (IRI) was induced by clamping of the left renal pedicle for 25 minutes. After ischemia reperfusion injury the mice were given THR-123 orally (5 mg/kg/day) or PBS till the day of sacrifice. FIG. 77A-FIG. 77C. Mac-1 immunofluorescence studies in the indicated groups. FIG. 77D. The number of macrophages per field of view (×400 magnification) was assessed by counting positively labeled cells in 5 random fields of view per slide, with 5 slides per experimental group.
Ischemia reperfusion injury (IRI) was induced by clamping of the left renal pedicle for 25 minutes. After ischemia reperfusion injury the mice were given THR-123 orally (5 mg/kg/day) or PBS till the day of sacrifice. FIG. 78A-FIG. 78C. Tubule cell apoptosis was analyzed in frozen kidney sections of indicated groups of animals by TUNEL staining. FIG. 78D. Quantification of TUNEL positive tubule cells. The number of TUNEL positive tubules per field of view (×200 magnification) was assessed by counting positively labeled cells in 5 random fields of view per slide, with 5 slides per experimental group.
THR-123 binds to Alk-3 receptor and induced actions that mimic BMP7 (vide supra). […] To functionally validate the target of THR-123 in exerting such reno-protective activity in mice, the efficacy of THR-123 in the Alk-3 deleted mice subjected to renal injury was tested (FIG. 42 K). The Alk-3 deleted mice and their littermate (control) mice were subjected to IRI.
(§2) Alk-3 flox mice are provided by Dr. Yuji Mishina, National Institutes of Health with material transfer agreements. γGT-Cre mice are provided from Dr. Eric Neilson, Vanderbilt University Medical Center. NTN is induced by the method described above.

[3] = tested on: Alk-3 deleted mice and control mice, NTN; assay: NTN in Alk-3 deleted (γGT-Cre; Alk3 flox/flox) and control mice; assay type: in vivo
Experimental: as §1
FIG. 79A-FIG. 79D. Tubule cell apoptosis was analyzed in frozen kidney sections of indicated groups of animals by TUNEL staining. Representative pictures were shown. FIG. 79D. Quantification of TUNEL positive tubule cells. The number of TUNEL positive tubules per field of view (×200 magnification) was assessed by counting positively labeled cells in 5 random fields of view per slide, with 5 slides per experimental group.
as §2

Substance: (H)-CYFDDSSNVLCKKYRS-(OH) (H-CYFDDSSNVLCKKYRS-OH; disulfide 1-11; SMILES CC(C)C[C@@H]1NC(=O)[C@H](C(C)C)NC(=O)[C@H](CC(N)=O)NC(=O)[C@H](CO)NC(=O)[C@H](CO)NC(=O)[C@H](CC(=O)O)NC(=O)[C@H](CC(=O)O)NC(=O)[C@H](Cc2ccccc2)NC(=O)[C@H](Cc2ccc(O)cc2)NC(=O)[C@@H](N)CSSC[C@@H](C(=O)N[C@@H](CCCCN)C(=O)N[C@@H](CCCCN)C(=O)N[C@@H](Cc2ccc(O)cc2)C(=O)N[C@@H](CCCNC(=N)N)C(=O)N[C@@H](CO)C(=O)O)NC1=O) [SEQ ID NO: 1]
- pulmonary fibrosis (histomorphometric analysis of lung tissue) ([1]; daily oral dose of 5 mg/kg): significantly less pulmonary fibrosis
- survival rate at 16 days ([1]; daily oral dose of 5 mg/kg, vehicle 100% mortality by 8 days): 80%
- lung fibrosis score (percentage of field with collagen accumulation, Masson's Trichrome) ([1]; day 16, oral, vehicle 31% at ten days): 16%
- survival by day 16 ([1]; oral): survival of all mice
- macrophage accumulation, IRI ([2]; Alk-3 deleted mice): does not inhibit macrophage accumulation
- tubular apoptosis, IRI ([2]; Alk-3 deleted mice): does not inhibit apoptosis
- renal injury (tubular necrosis), IRI ([2]; Alk-3 deleted mice): does not exhibit therapeutic effect
- macrophage accumulation, IRI ([2]; control mice): reduction in macrophage accumulation
- tubular apoptosis, IRI ([2]; control mice): decreased tubular apoptosis
- renal injury (tubular necrosis), IRI ([2]; control mice): inhibited renal injury
- renal function (blood urea nitrogen), NTN ([3]; Alk3-deleted mice): not realized
- EMT program in the tubules, NTN ([3]; Alk3 deleted mice): did not inhibit
- apoptosis, NTN kidney ([3]; Alk3 deleted mice): no effect on apoptosis
- macrophage accumulation in the kidney, NTN ([3]; Alk3 deleted mice): did not inhibit
- renal injury and fibrosis, NTN ([3]; Alk-3 deleted mice): no efficacy
- EMT program in the tubules, NTN ([3]; control mice): inhibition
- macrophage accumulation in the kidney, NTN ([3]; control mice): inhibition
- renal function (blood urea nitrogen), NTN ([3]; control mice): restored renal function
- renal injury and fibrosis, NTN ([3]; control mice): successful in controlling renal injury and fibrosis
- apoptosis, NTN kidney ([3]; wild type kidney): inhibit apoptosis
